This is an account of results in patent US12022844B2, “Nutritional composition, food/drink composition using nutritional composition, and modified milk powder using nutritional composition” (priority 2018, dated 2024).

Assay type in all cases: cell-based
Experiment [1] deals with Bifidobacterium bifidum NITE BP-1252. Briefly: Single bacterial culturing with HMO as sugar source, OD650. The following applies: sugar source 2%, anaerobic 37° C., 8 h, Table 5. The protocol:
(§1) A10% solution of glucose (manufactured by Nakarai Tesque Inc.), and 2′-FL ((≥95%) Funakoshi, available from sigma), and LNnT (manufactured by ELICITYL) as examples of HMOs was prepared with ion exchanged water, and was subjected to sterile filtration using Millex-GV (SLGV033RS).
(§2) Lactobacilli MRS Broth (BD) (0.05% L-Cysteine Hydrochloride for Bacteria of the genus Bifidobacterium) was added to strains of Table 1 below (bacteria belonging to Bifidobacterium bifidum) and Table 2 below. After a sterilization treatment, 3% of the bacterial solution was inoculated, and anaerobically cultured (pre-pre cultured) at 37° C. for 16 h.
(§3) The following day, 1% glucose was added to a modified BL agar medium (“Studies on Bifidobacteria” by Tomotari Mitsuoka, p. 306, Japan Bifidus Foundation, issued in 1994) noted in Table 3, for preparation. After a sterilization treatment, 3% of the pre-pre cultured bacterial solution was inoculated, and anaerobically pre-cultured (pre-cultured) at 37° C. for 12 h.
(§4) The pre-cultured bacterial solution was collected and washed once with a sterile physiological saline solution. Then, mass-up was performed to an equal volume with the modified BL agar medium (“Studies on Bifidobacteria” by Tomotari Mitsuoka, p. 306, Japan Bifidus Foundation, issued in 1994) noted in Table 3 to prepare a suspended bacterial solution.
(§5) The modified BL agar medium (“Studies on Bifidobacteria” by Tomotari Mitsuoka, p. 306, Japan Bifidus Foundation, issued in 1994) noted in Table 3 was prepared at a capacity of 60%, and was subjected to an autoclave sterilization treatment. Then, 40% of each sugar solution prepared in (1) was aseptically added so as to prepare a medium with a sugar concentration of 4%.
(§6) The medium prepared in the above (3) was dispensed at a capacity that is half the capacity for culturing in a 96-well plate, and the bacterial solution prepared in the above (2) was dispensed at a remaining half capacity such that the bacterial solution had 6%. Then, a final sugar concentration was set to 2%. The plate into which the bacterial solution was dispensed was anaerobically cultured at 37° C. for 8 h.
(§7) OD650 was measured from each well in the plates in the above (4) and the above (5) before (0 h) culturing and after (8 h) culturing, by MICROPLATE READER SH-9000 (manufactured by CORONA ELECTRIC). After turbidity measurement, microbial cells were collected, and DNA extraction was performed. After the DNA extraction, the number of proliferating bacteria of Bifidobacteria/lactobacilli was analyzed by using the bacterial species-specific primer noted in Table 4, by a quantitative PCR method (see “Structural analysis of intestinal flora”—analysis of bacterial flora in human feces using quantitative PCR—by Kouichi Watanabe, Enterobacteriological journal, 20:35-42, 2006).
(§8) Regarding bacteria belonging to Bifidobacterium bifidum in Table 1, each strain was cultured as a single bacterium by 2′-FL or LNnT (HMOs) as a sugar source, and OD650 was measured. Table 5 illustrates OD650 increase values after seven strains of the bacteria belonging to Bifidobacterium bifidum in Table 1 were cultured for 8 h by 2′-FL or LNnT as a sugar source.

For experiment [2], the system named is Bifidobacterium bifidum NITE BP-02432. Described as above. The following applies: sugar source 2%, anaerobic 37° C., 8 h, Table 5. The protocol: as §1, §2, §3, §4, §5, §6, §7, §8
Experiment [3] relates to Bifidobacterium bifidum NITE BP-02431. The description is as above. Conditions: sugar source 2%, anaerobic 37° C., 8 h, Table 5. The protocol: as §1, §2, §3, §4, §5, §6, §7, §8
In experiment [4] the test system is Bifidobacterium bifidum ATCC29521. The experiment is described as above. The following applies: ATCC 29521^T, sugar source 2%, anaerobic 37° C., 8 h, Table 5. The protocol: as §1, §2, §3, §4, §5, §6, §7, §8
Experiment [5] concerns Bifidobacterium bifidum NITE P-02648. Described as above. Conditions: sugar source 2%, anaerobic 37° C., 8 h, Table 5. Here is the method: as §1, §2, §3, §4, §5, §6, §7, §8
Experiment [6] relates to Bifidobacterium bifidum NITE BP-02433. Described as above. Conditions: sugar source 2%, anaerobic 37° C., 8 h, Table 5. Here is the method: as §1, §2, §3, §4, §5, §6, §7, §8
In experiment [7] the test system is Lactobacillus rhamnosus ATCC7469. Briefly: Mix-culturing with Bifidobacterium bifidum by HMO as sugar source, quantitative PCR. Conditions: ATCC 7469^T mix-cultured with Bifidobacterium bifidum (NITE BP-02429), sugar source 2%, Table 8. Here is the method:
as §1, §2, §3, §4, §5
(§9) The medium prepared in the above (3) was dispensed at a capacity that is half the capacity for aseptic culturing in a 96-well plate, and each of the bacterial solutions of strains of bacteria belonging to Bifidobacterium bifidum in Table 1 and probiotics having a low ability to assimilate human milk oligosaccharides in Table 2, which was prepared in the above (2), was dispensed at a remaining […] capacity into the medium prepared in the above (3) such that the bacterial solution had 12%. Then, a final sugar concentration was set to 2%. The plate into which the bacterial solution was dispensed was anaerobically cultured at 37° C. for 8 h.
as §7
(§10) It was decided to culture Bifidobacterium bifidum (NITE BP-02429) in which availability of 2′-FL or LNnT was found as described above, in combination with strains in Table 2, which cannot use 2′-FL or LNnT. Bifidobacterium bifidum (NITE BP-02429) and the strains in Table 2, which cannot use 2′-FL or LNnT, were mix-cultured by 2′-FL or LNnT as a sugar source, and after culturing for 8 h, the proliferation rate of the number of bacteria of each strain (proliferation rate=the number of bacteria after mix-culturing for 8 h/the number of bacteria after single bacterial culturing) was measured by a quantitative PCR method using each strain-specific oligonucleotide primer noted in Table 4, for the strain in Table 2.

In experiment [8] the test system is Bifidobacterium pseudolongum ATCC25526. Described as above. Conditions: ATCC 25526^T mix-cultured with Bifidobacterium bifidum (NITE BP-02429), sugar source 2%, Table 8. The protocol: as §1, §2, §3, §4, §5, §9, §7, §10
The subject of experiment [9] is Bifidobacterium animalis subspecies lactis MCC-525. Described as above. Conditions: for Proliferation rate (number of bacteria after mix-culturing for 8 h/number of bacteria after single bacterial culturing): MCC-525 mix-cultured with Bifidobacterium bifidum (NITE BP-02429), sugar source 2%, Table 8; for Proliferation rate of MCC-525 (mix-cultured bacteria after 8 h/single bacterial culturing 8 h): Table 10; for number of proliferating bacteria of MCC-525 in combination with seven strains of Bifidobacterium bifidum compared to single bacterium culture: summary of Table 10. The protocol:
as §1, §2, §3, §4, §5, §9, §7, §10
Seven strains of Bifidobacterium bifidum in Table 1 and Bifidobacterium animalis subspecies lactis MCC-525 which cannot use 2′-FL or LNnT were mix-cultured by 2′-FL or LNnT as a sugar source. […]

Experiment [10] has as its system Lactobacillus gasseri ATCC 33323. The experiment is described as above. Conditions: for Proliferation rate (number of bacteria after mix-culturing for 8 h/number of bacteria after single bacterial culturing): ATCC 33323^T mix-cultured with Bifidobacterium bifidum (NITE BP-02429), sugar source 2%, Table 8; for proliferation rate of Lactobacillus gasseri ATCC 33323^T (mix-cultured bacteria after 8 h/single bacterial culturing 8 h): Table 11. Here is the method:
as §1, §2, §3, §4, §5, §9, §7, §10
Seven strains of Bifidobacterium bifidum in Table 1 and Lactobacillus gasseri ATCC 33323^T which cannot use 2′-FL were mix-cultured by 2′-FL as a sugar source. […]

Where [11] appears, read: mix-cultured with Bifidobacterium bifidum ATCC 29521^T.
Where [12] appears, read: mix-cultured with Bifidobacterium bifidum NITE BP-1252.
[13] abbreviates: mix-cultured with Bifidobacterium bifidum NITE BP-02429.
The mark [14] stands for this setting: mix-cultured with Bifidobacterium bifidum NITE BP-02431.
Where [15] appears, read: mix-cultured with Bifidobacterium bifidum NITE BP-02432.
The mark [16] stands for this setting: mix-cultured with Bifidobacterium bifidum NITE BP-02433.
Where [17] appears, read: mix-cultured with Bifidobacterium bifidum NITE P-02648.

`CC(=O)N[C@H]1[C@H](O[C@H]2[C@@H](O)[C@@H](CO)O[C@@H](O[C@H]3[C@H](O)[C@@H](O)C(O)O[C@@H]3CO)[C@@H]2O)O[C@H](CO)[C@@H](O[C@@H]2O[C@H](CO)[C@H](O)[C@H](O)[C@H]2O)[C@@H]1O` (mixture of isomers) [LNnT, lacto-N-neotetraose]: the OD650 increase value is 0.373 in experiment [1]; 0.522 in experiment [2]; 0.535 in [3]; 0.008 in experiment [4]; 0.719 in experiment [5]; 0.370 in experiment [6]. The “Proliferation rate (number of bacteria after mix-culturing for 8 h/number of bacteria after single bacterial culturing)” value turned out to be 5.03 in [7], 0.98 in [8], 1.41 in experiment [9] and 1.53 in experiment [10]. The “proliferation promotion effect of the number of bacteria of MCC-525” value in [9] (in the combination with Bifidobacterium bifidum (NITE BP-1252)) is given as “significantly higher”. Besides, the “Proliferation rate of MCC-525 (mix-cultured bacteria after 8 h/single bacterial culturing 8 h)” value amounted to 3.87 in experiment [9] (setting [11]); 19.98 in [9] (setting [12]); 4.17 in [9] (setting [13]); 3.58 in experiment [9] (setting [14]); 4.21 in [9] (setting [15]); 2.39 in [9] (setting [16]). In addition, in [9] (setting [17]), the “Proliferation rate of MCC-525 (mix-cultured bacteria after 8 h/single bacterial culturing 8 h)” value came to 6.03. Further, in experiment [9], the “number of proliferating bacteria of MCC-525 in combination with seven strains of Bifidobacterium bifidum compared to single bacterium culture” value is reported as “promoted”.

On to 2′-fucosyllactose [2′-FL], for which the OD650 increase value in experiment [1] came out at 0.225; in experiment [2] it was 0.430; in experiment [3], 0.037; in [4], 0.060; in [5], 0.470; in [6], 0.431. Further, the “Proliferation rate (number of bacteria after mix-culturing for 8 h/number of bacteria after single bacterial culturing)” value was found to be 2.69 in experiment [7], 1.24 in experiment [8], 2.62 in experiment [9] and 3.70 in [10]. Further, the “Proliferation rate of MCC-525 (mix-cultured bacteria after 8 h/single bacterial culturing 8 h)” value in experiment [9] (setting [11]) was 2.01; in [9] (setting [12]) it was 2.06; in experiment [9] (setting [13]) it was 4.85; in experiment [9] (setting [14]), 3.82; in experiment [9] (setting [15]), 2.45; in [9] (setting [16]), 3.67. Further, the “Proliferation rate of MCC-525 (mix-cultured bacteria after 8 h/single bacterial culturing 8 h)” value in experiment [9] (setting [17]) is 4.35. Besides, the “number of proliferating bacteria of MCC-525 in combination with seven strains of Bifidobacterium bifidum compared to single bacterium culture” value in experiment [9] is given as “promoted”. Further, the “proliferation rate of Lactobacillus gasseri ATCC 33323^T (mix-cultured bacteria after 8 h/single bacterial culturing 8 h)” value is 1.45 in [10] (setting [11]); 3.99 in experiment [10] (setting [12]); 2.33 in experiment [10] (setting [13]); 4.42 in [10] (setting [14]); 3.99 in experiment [10] (setting [15]); 3.64 in experiment [10] (setting [16]). For the same compound, the “proliferation rate of Lactobacillus gasseri ATCC 33323^T (mix-cultured bacteria after 8 h/single bacterial culturing 8 h)” value in experiment [10] (setting [17]) was 2.88. For the same compound, the “number of proliferating bacteria of Lactobacillus gasseri ATCC33323T in combination with seven strains of Bifidobacterium bifidum compared to single bacterium culture” value in experiment [10] (summary of Table 11) is “promoted”.
